Each structure is given as a SMILES string. Where two headings read alike, the source gives them in different places.

For orientation: IC50 means the concentration that inhibits the measured activity by half.

The test system of assay [1] is constitutive active colorectal cancer cell (CRC) Wnt pathway. Put plainly: HCT116 Super TopFlash cellular reporter assay (constitutive active Wnt pathway). In kind it is cell-based. As to conditions: HCT116 TOP reporter cells, luciferase expression, 36 hours incubation, 50 μM to 15 nM. How it is done:
In order to discover and characterize small molecules which inhibit the constitutive active colorectal cancer cell (CRC) Wnt pathway, a cellular reporter assay was employed. The corresponding assay cell was generated by transfection of the colorectal cancer cell line HCT116 (ATCC, #CCL-247) with the Super TopFlash vector (Morin, Science 275, 1997, 1787-1790; Molenaar et al., Cell 86 (3), 1996, 391-399). The HCT116 cell line is cultivated at 37° C. and 5% CO2 in DMEM/F-12 (Life Technologies, #11320-074), supplemented with 2 mM glutamine, 20 mM HEPES, 1.4 mM pyruvate, 0.15% Na-bicarbonate and 10% foetal bovine serum (GIBCO, #10270), this cancer cell line is pathophysiological relevant since it carries a deletion of position S45 in the β-catenin gene, leading to constitutive active Wnt signaling. Stable transfectants were generated by cotransfection with pcDNA3 and selection of stable transfected cells with 1 mg/ml G418.
(§1) In a parallel approach, HCT116 cells were cotransfected with the FOP control vector and pcDNA3. The FOP vector is identical to the TOP construct, but it contains instead of functional TCF elements a randomized, non-functional sequence. For this transfection a stable transfected cell line was generated as well.
(§2) In preparation of the assay, the two cell lines were plated 24 hrs before at 10000 cells per well of a 384 micro titre plate (MTP) in 30 μL growth medium. Selective inhibitory activity for small molecules on the mutated Wnt pathway was determined after parallel incubation of both (TOP and FOP) HCT116 reporter cell lines with a compound dilution series from 50 μM to 15 nM in steps of 3.16-fold dilutions in CAFTY buffer (130 mM NaCl, 5 mM KCl, 20 mM HEPES, 1 mM MgCl2, 5 mM NaHCO3, pH 7.4) containing 2 mM Ca^2+ and 0.01% BSA. The compounds were thereby serially prediluted in 100% DMSO and thereafter in addition 50 fold into the CAFTY compound dilution buffer (described above). From this dilution 10 μL were added to the cells in 30 μL growth medium and incubated for 36 hours at 37° C. and 5% CO2. Thereafter luciferase assay buffer (1:1 mixture of luciferase substrate buffer (20 mM Tricine, 2.67 mM MgSO4, 0.1 mM EDTA, 4 mM DTT, 270 μM Coenzyme A, 470 μM Luciferin, 530 μM ATP, ph adjusted to pH 7.8 with a sufficient volume of 5M NaOH) and Triton buffer (30 mL Triton X-100, 115 mL glycerol, 308 mg Dithiothreitol, 4.45 g Na2HPO4.2 H2O, 3.03 g Tris.HCL, ad 1 l H20, pH 7.8) was added as equal volume to the compound solution on the cells to determine luciferase expression as a measure of Wnt signaling activity in a luminometer.
(Reporter assays use an easily measured gene product as a stand-in for the process of interest.)

Assay [2] concerns HCT116 FOP control reporter cell line. The assay can be described thus: HCT116 FOP control vector reporter assay (non-functional TCF elements). It is filed as cell-based. Conditions: HCT116 FOP control reporter cells, luciferase expression, 36 hours incubation, 50 μM to 15 nM, read-out: HCT116 FOPFlash IC50. How it is done: as §1, §2

As for `COCCCOCc1ccc(C(=O)Nc2ccc(-c3ccccc3)cc2)cc1NC(=O)C(C)N1CCOCC1` (single isomer, unassigned) [Example 166, N-(biphenyl-4-yl)-4-[(3-methoxypropoxy)methyl]-3-{[(2R*)-2-(morpholin-4-yl)propanoyl]amino} benzamide], the IC50 amounted to 135 nM in assay [1] and 5400 nM in assay [2] (Homo sapiens, HCT-116, 36 h).

Regarding `CC(C(=O)Nc1cc(NC(=O)c2ccc(-c3ccccc3)cc2)ccc1C(F)(F)F)N1CC2CCC(C1)O2` (single isomer, unassigned) [Example 182, N-[3-{[(2R*)-2-(8-oxa-3-azabicyclo[3.2.1]oct-3-yl)propanoyl]amino}-4-(trifluoromethyl)phenyl] biphenyl-4-carboxamide], the IC50 was 311 nM in assay [1] and at least 50000 nM in assay [2] (Homo sapiens, HCT-116, 36 h).

As to `COc1ccc(NC(=O)c2ccc(-c3ccccc3)c(F)c2)cc1NC(=O)CN1CCOCC1` [Example 203, 2-fluoro-N-{4-methoxy-3-[(morpholin-4-ylacetyl)amino]phenyl} biphenyl-4-carboxamide], the IC50 in assay [1] (Homo sapiens, HCT-116, 36 h) is 2020 nM; in assay [2] (Homo sapiens, HCT-116, 36 h), at least 50000 nM.

In the case of `COCCOCc1ccc(C(=O)Nc2ccc(-c3ccccc3)cc2)cc1NC(=O)C(C)N1CCOCC1` (single isomer, unassigned) [Example 177, N-(biphenyl-4-yl)-4-[(2-methoxyethoxy)methyl)-3-{[(2S*)-2-(morpholin-4-yl)propanoyl)amino} benzamide], the IC50 was determined as 265 nM in assay [1] (Homo sapiens, HCT-116, 36 h) and 15000 nM in assay [2] (Homo sapiens, HCT-116, 36 h).

Turning to `O=C(Nc1ccc(F)c(NC(=O)C2(N3CCOCC3)CC2)c1)c1ccc(-c2ccccc2)cc1` [Example 171, N-[4-fluoro-3-({[1-(morpholin-4-yl)cyclopropyl]carbonyl}amino)phenyl]biphenyl-4-carboxamide], the IC50 in assay [1] (Homo sapiens, HCT-116, 36 h) is 200 nM; in assay [2] (Homo sapiens, HCT-116, 36 h), at least 50000 nM.

Consider `COc1ccc(NC(=O)c2ccc(-c3ccccc3)cc2)cc1NC(=O)[C@H](C)N1CCOCC1` [Example 54, N-(4-methoxy-3-{[(2S)-2-(morpholin-4-yl)propanoyl]amino}phenyl)biphenyl-4-carboxamide], for which the IC50 in assay [1] (Homo sapiens, HCT-116, 36 h) was 350 nM; in assay [2] (Homo sapiens, HCT-116, 36 h), at least 50000 nM.

Turning to `COc1ccc(CC(=O)Nc2cc(NC(=O)c3ccc(-c4ccccc4)cc3)ccc2OC)cc1` [Example 144, N-(4-methoxy-3-{[(4-methoxyphenyl)acetyl]amino}phenyl)biphenyl-4-carboxamide], the IC50 is 3850 nM in assay [1] (Homo sapiens, HCT-116, 36 h) and at least 50000 nM in assay [2] (Homo sapiens, HCT-116, 36 h).

On to `COc1ccc(NC(=O)c2ccc(-c3ccccc3)cc2)cc1NC(=O)Cc1ccc(F)cc1` [Example 138, N-(3-{[(4-fluorophenyl)acetyl]amino}-4-methoxyphenyl)biphenyl-4-carboxamide], for which the IC50 in assay [1] (Homo sapiens, HCT-116, 36 h) is 1200 nM; in assay [2] (Homo sapiens, HCT-116, 36 h) it was at least 50000 nM.

Turning to `O=C(Nc1ccc([N+](=O)[O-])cc1Cl)c1cc(Cl)ccc1O` [Ref., niclosamide, reference compound], the IC50 in assay [1] (Homo sapiens, HCT-116, 36 h) is 1380 nM; in assay [2] (Homo sapiens, HCT-116, 36 h), 3100 nM.

In the case of `CC(=O)NCCCOc1ccc(C(=O)Nc2ccc(-c3ccccc3)cc2)cc1NC(=O)CN1CCOCC1` [Example 126, 4-(3-acetamidopropoxy)-N-(biphenyl-4-yl)-3-[(morpholin-4-ylacetyl)amino]benzamide], the IC50 in assay [1] (Homo sapiens, HCT-116, 36 h) is 222 nM; in assay [2] (Homo sapiens, HCT-116, 36 h), at least 50000 nM.

With `CCC(C(=O)Nc1cc(C(=O)Nc2ccc(-c3ccccc3)cc2)ccc1OC)N1CCOCC1` (single isomer, unassigned) [Example 132, N-(biphenyl-4-yl)-4-methoxy-3-{[(2S*)-2-(morpholin-4-yl)butanoyl]amino} benzamide], the figures for the IC50 in assay [1] and in assay [2] were 310 nM and at least 50000 nM, respectively.

`COCCc1noc(-c2ccc(C(=O)Nc3ccc(-c4ccccc4)cc3)cc2NC(=O)CN2CCOCC2)n1` [Example 200, N-(biphenyl-4-yl)-4-[3-(2-methoxyethyl)-1,2,4-oxadiazol-5-yl]-3-[(morpholin-4-ylacetyl)amino]benzamide]: the IC50 in assay [1] (Homo sapiens, HCT-116, 36 h) was 1750 nM; in assay [2] (Homo sapiens, HCT-116, 36 h) it was at least 50000 nM.

As for `CC(C)NC(=O)c1ccc(C(=O)Nc2ccc(-c3ccccc3)cc2)cc1NC(=O)CN1CCOCC1` [Example 155, N^4-(biphenyl-4-yl)-2-[(morpholin-4-ylacetyl)amino]-N^1-(propan-2-yl)benzene-1,4-dicarboxamide], the IC50 is 49.8 nM in assay [1] (Homo sapiens, HCT-116, 36 h) and at least 50000 nM in assay [2] (Homo sapiens, HCT-116, 36 h).

For `Cc1noc(-c2ccc(C(=O)Nc3ccc(-c4ccccc4)cc3)cc2NC(=O)CN2CCOCC2)n1` [Example 194, N-(biphenyl-4-yl)-4-(3-methyl-1,2,4-oxadiazol-5-yl)-3-[(morpholin-4-ylacetyl)amino]benzamide], the IC50 in assay [1] (Homo sapiens, HCT-116, 36 h) is 864 nM; in assay [2] (Homo sapiens, HCT-116, 36 h), at least 50000 nM.

For `CCN1CCN(CC(=O)Nc2cc(NC(=O)c3ccc(-c4ccccc4)cc3)ccc2OC)CC1` [Example 50, N-(3-{[(4-ethylpiperazin-1-yl)acetyl]amino}-4-methoxyphenyl)biphenyl-4-carboxamide], the IC50 was found to be 3640 nM in assay [1] (Homo sapiens, HCT-116, 36 h) and 23000 nM in assay [2] (Homo sapiens, HCT-116, 36 h).

With `COc1c(Cl)cc(C(=O)Nc2ccc(-c3ccccc3)cc2)cc1NC(=O)CN1CCN(C)CC1` [Example 215, N-(biphenyl-4-yl)-3-chloro-4-methoxy-5-{[(4-methylpiperazin-1-yl)acetyl]amino}benzamide], the IC50 was 772 nM in assay [1] (Homo sapiens, HCT-116, 36 h) and 18900 nM in assay [2] (Homo sapiens, HCT-116, 36 h).

Take `COc1c(F)cc(C(=O)Nc2ccc(-c3ccccc3)cc2)cc1NC(=O)CN1CCN(C)CC1` [Example 216, N-(biphenyl-4-yl)-3-fluoro-4-methoxy-5-{[(4-methylpiperazin-1-yl)acetyl]amino}benzamide]: the IC50 is 524 nM in assay [1] (Homo sapiens, HCT-116, 36 h) and 6950 nM in assay [2] (Homo sapiens, HCT-116, 36 h).

`COc1ccc(NC(=O)c2ccc(-c3ccccc3)cc2)cc1NC(=O)Cc1cccc(F)c1` [Example 142, N-(3-{[(3-fluorophenyl)acetyl]amino}-4-methoxyphenyl)biphenyl-4-carboxamide]: the IC50 in assay [1] (Homo sapiens, HCT-116, 36 h) is 2850 nM; in assay [2] (Homo sapiens, HCT-116, 36 h), at least 50000 nM.

As to `COCc1ccc(C(=O)Nc2ccc(-c3ccccc3)cc2)cc1NC(=O)CN1CCOCC1` [Example 165, N-(biphenyl-4-yl)-4-(methoxymethyl)-3-[(morpholin-4-ylacetyl)amino]benzamide], the IC50 in assay [1] (Homo sapiens, HCT-116, 36 h) was 135 nM; in assay [2] (Homo sapiens, HCT-116, 36 h) it was at least 50000 nM.

For `COC1CN(CC(=O)Nc2cc(C(=O)Nc3ccc(-c4ccccc4)cc3)ccc2OC2CC2)C1` [Example 186, N-(biphenyl-4-yl)-4-(cyclopropyloxy)-3-{[(3-methoxyazetidin-1-yl)acetyl]amino}benzamide], the IC50 in assay [1] (Homo sapiens, HCT-116, 36 h) was 385 nM; in assay [2] (Homo sapiens, HCT-116, 36 h) it was at least 50000 nM.

On to `C[C@H](C(=O)Nc1cc(NC(=O)c2ccc(-c3ccccc3)cc2)ccc1OC(F)(F)F)N1CC2CCC(C1)O2` [Example 60, N-[3-{[(2R)-2-(8-oxa-3-azabicyclo[3.2.1]oct-3-yl)propanoyl]amino}-4-(trifluoromethoxy)phenyl]biphenyl-4-carboxamide], for which the IC50 in assay [1] (Homo sapiens, HCT-116, 36 h) is 582 nM; in assay [2] (Homo sapiens, HCT-116, 36 h) it was at least 50000 nM.

Turning to `COCCOc1ccc(C(=O)Nc2ccc(-c3ccccc3)cc2)cc1NC(=O)C1(N2CCOCC2)CC1` [Example 218, N-(biphenyl-4-yl)-4-(2-methoxyethoxy)-3-({[1-(morpholin-4-yl)cyclopropyl]carbonyl)amino)benzamide], the IC50 in assay [1] (Homo sapiens, HCT-116, 36 h) is 11 nM; in assay [2] (Homo sapiens, HCT-116, 36 h) it was at least 50000 nM.

Regarding `CN1CCN(CC(=O)Nc2cc(C(=O)Nc3ccc(-c4ccccc4)cc3)ccc2OCC2CC2)CC1` [Example 222, N-(biphenyl-4-yl)-4-(cyclopropylmethoxy)-3-{[(4-methylpiperazin-1-yl)acetyl]amino}benzamide], the IC50 is 105 nM in assay [1] (Homo sapiens, HCT-116, 36 h) and 9000 nM in assay [2] (Homo sapiens, HCT-116, 36 h).

As to `COc1cccc(CC(=O)Nc2cc(NC(=O)c3ccc(-c4ccccc4)cc3)ccc2OC)c1` [Example 143, N-(4-methoxy-3-{[(3-methoxyphenyl}acetyl]amino}phenyl)biphenyl-4-carboxamide], the concentration for half-maximal inhibition (IC50) was 3300 nM in assay [1] (Homo sapiens, HCT-116, 36 h) and at least 50000 nM in assay [2] (Homo sapiens, HCT-116, 36 h).

The values are drawn from US20160052898A1, “NOVEL COMPOUNDS” (BAYER PHARMA AKTIENGESELLSCHAFT, priority 2013, published 2016).
